Values after ≈ are worked out from the molar mass of the structure shown. Values joined by “and” are separate entries in the source; they are usually repeats but may differ in a detail not shown here. Identical values can stand only once. Counter-ions that a name gives are not always drawn. Like-named read-outs stand apart in the source and are kept apart here.
How the values were obtained:
[1] = monkey, in vivo, po
[2] = Solubility study in water (HPLC); conditions: for Solubility (g/L) / Solubility (mol/L): in water
[3] = Bioavailability of the prodrugs of L-dC in monkeys, with and without L-dT; conditions: for % BA (bioavailability of L-dC): estimated relative to AUC of L-dC (oral dose)
[4] = Day 25, analyte = label
[5] = for Tlast: analyte = label
[6] = test system: cytosolic extracts of HepG2 cells; assay: Steady state phosphorylation kinetics in HepG2 cytosolic extracts; type: biochemical, human
[7] = Mitochondrial toxicity assay in HepG2 cells; type: cell-based, human; conditions: human
HepG2 cells [8] = assay: Mitochondrial toxicity assay in HepG2 cells; type: cell-based, human; conditions: human
[9] = biological target: virion-associated DNA polymerase of WHV (Woodchuck hepatitis B virus, UniProt P03160); assay: biochemical
Chain of virion-associated DNA polymerase of WHV (P03160 whole entry): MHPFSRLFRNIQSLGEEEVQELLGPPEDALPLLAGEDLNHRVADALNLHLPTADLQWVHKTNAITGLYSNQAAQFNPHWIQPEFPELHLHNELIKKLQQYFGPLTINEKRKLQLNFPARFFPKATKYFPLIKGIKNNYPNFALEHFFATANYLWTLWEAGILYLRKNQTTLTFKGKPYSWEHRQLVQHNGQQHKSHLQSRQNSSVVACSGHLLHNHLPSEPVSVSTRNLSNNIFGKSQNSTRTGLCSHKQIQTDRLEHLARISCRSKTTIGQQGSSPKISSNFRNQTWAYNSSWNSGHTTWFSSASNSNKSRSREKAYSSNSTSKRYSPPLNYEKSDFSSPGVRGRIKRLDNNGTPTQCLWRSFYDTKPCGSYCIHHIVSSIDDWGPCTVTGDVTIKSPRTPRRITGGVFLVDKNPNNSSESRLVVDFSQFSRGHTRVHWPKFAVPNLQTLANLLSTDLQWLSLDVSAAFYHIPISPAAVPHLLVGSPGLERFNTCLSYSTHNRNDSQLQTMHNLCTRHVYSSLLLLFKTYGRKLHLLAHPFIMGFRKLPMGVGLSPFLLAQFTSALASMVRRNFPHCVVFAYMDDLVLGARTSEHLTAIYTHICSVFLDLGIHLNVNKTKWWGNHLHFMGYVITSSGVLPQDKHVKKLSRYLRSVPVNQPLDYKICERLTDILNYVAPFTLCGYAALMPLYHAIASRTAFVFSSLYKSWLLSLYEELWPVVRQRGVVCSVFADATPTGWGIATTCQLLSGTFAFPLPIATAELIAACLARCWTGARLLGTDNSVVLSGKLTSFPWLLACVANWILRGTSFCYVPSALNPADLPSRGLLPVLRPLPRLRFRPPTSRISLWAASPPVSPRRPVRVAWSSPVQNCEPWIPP

human DNA polymerase β [10] = biological target: T1, human DNA polymerase β (Homo sapiens, UniProt P06746); conditions: from Chang, et al. / Yao, read-out: IC50 Human DNA pol β; cited from earlier work
human DNA polymerase γ [11] = biological target: T2, human DNA polymerase γ (Homo sapiens, UniProt P54098); conditions: from Chang, et al. / Yao; cited from earlier work
T2 sequence (P54098 1-1239): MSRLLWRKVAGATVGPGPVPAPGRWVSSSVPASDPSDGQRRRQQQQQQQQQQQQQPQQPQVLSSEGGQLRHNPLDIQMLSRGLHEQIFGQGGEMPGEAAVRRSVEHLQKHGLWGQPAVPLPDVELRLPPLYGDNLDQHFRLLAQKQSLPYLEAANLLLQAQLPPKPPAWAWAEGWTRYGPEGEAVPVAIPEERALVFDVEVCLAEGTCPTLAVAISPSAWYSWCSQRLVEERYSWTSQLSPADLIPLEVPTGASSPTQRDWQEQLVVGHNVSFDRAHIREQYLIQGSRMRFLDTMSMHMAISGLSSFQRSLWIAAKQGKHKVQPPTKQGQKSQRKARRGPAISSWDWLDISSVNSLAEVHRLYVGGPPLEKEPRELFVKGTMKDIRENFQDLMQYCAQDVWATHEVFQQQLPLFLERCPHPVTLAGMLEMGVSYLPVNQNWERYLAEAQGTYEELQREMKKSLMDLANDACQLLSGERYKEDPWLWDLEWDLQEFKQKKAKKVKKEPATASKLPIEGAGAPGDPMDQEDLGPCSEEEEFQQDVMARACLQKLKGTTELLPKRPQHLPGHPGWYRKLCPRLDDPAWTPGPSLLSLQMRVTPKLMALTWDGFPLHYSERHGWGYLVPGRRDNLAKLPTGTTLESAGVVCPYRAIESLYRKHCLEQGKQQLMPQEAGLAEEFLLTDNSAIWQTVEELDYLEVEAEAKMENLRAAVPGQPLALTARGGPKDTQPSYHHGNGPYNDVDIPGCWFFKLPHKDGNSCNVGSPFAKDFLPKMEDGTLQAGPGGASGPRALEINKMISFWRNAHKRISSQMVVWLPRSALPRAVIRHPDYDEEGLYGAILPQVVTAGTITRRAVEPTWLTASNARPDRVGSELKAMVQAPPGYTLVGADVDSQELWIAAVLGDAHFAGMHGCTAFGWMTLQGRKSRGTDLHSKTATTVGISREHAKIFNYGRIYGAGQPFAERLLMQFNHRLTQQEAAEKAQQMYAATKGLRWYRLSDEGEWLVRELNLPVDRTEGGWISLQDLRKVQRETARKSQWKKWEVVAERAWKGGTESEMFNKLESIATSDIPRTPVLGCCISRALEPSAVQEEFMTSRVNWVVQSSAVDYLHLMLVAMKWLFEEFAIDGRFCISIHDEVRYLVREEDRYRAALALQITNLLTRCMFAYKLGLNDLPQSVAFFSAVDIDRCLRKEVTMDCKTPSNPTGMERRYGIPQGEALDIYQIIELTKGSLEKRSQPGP

human DNA polymerase β [12] = biological target: T1, human DNA polymerase β; type: biochemical; conditions: highest concentration tested 100 μM; read-out: IC50 Human DNA pol β
Description: (§1) Nucleosides and nucleoside analogs are usually metabolized within cells to their TP derivatives. Cellular DNA polymerases are routinely responsible for normal nuclear and mitochondrial DNA synthesis and repair. Because the TP metabolites are potential substrates for DNA polymerases, studies were undertaken to determine if L-dC-TP inhibited human DNA polymerases.

human DNA polymerase γ [13] = biological target: T2, human DNA polymerase γ; type: biochemical; conditions: highest concentration tested 100 μM
Description: as §1

HepG2 cells [14] = conditions: human
in vitro = conditions: human
[15] = Single dose bioavailability of dival-L-dC (IV and oral) in cynomologus monkey; type: in vivo, cynomologus monkey (macaca fascicularis); conditions: oral dival-L-dC; analyte = label
Description: The drug was quantitated in plasma and urine with a liquid chromatography-mass spectrometry (LC-MS) technique.

[16] = test system: primary human hepatocytes; conditions: 24 h, 10 μM
[17] = test system: human erythroid burst-forming (BFU-E) progenitor cells; type: cell-based; conditions: human bone marrow clonogenic assay
Description: (§2) In particular, anemia and neutropenia are the most common drug-related clinical toxicities associated with the anti-HIV drug zidovudine (ZDV).

[18] = test system: human granulocyte-macrophage colony-forming (CFU-GM) progenitor cells; type: cell-based; conditions: human bone marrow clonogenic assay
Description: as §2

[19] = octanol-1 / MilliQ water pH 6.5; Study 1, Study 2; listed as L-dC-3′,5′-divalinyl ester hydrochloride
Procedure: (§3) To 1 mL of this solution, 1 mL of octanol-1 (B) saturated with MilliQ water (A′) was added.
as §3

[20] = Oral bioavailability of L-dC via dival-L-dC in cynomologus monkey (HPLC study)
Description: The drug was quantitated in plasma and in urine using HPLC analysis.

[21] = Escalating oral dose toxicity of dival-L-dC in monkeys; type: in vivo, cynomologus monkey
Description: […]. […] Clinical observations were documented daily. Blood samples for hematology and serum chemistries were collected and body weight measured before treatment on Days 1, 4, 7, 10, and 14, and before necropsy on Day 17. After completion of Day 17 evaluations, all animals were euthanized and a complete necropsy performed, including macroscopic examination and comprehensive tissue collection.

[22] = human
[23] = Log P study, octanol-1/phosphate buffer pH 7.2
[24] = endogenous polymerase assay, read-out: IC50 Viral DNA pol (WHV DNA polymerase)

## CC(=O)OC[C@@H]1O[C@H](n2ccc(N)nc2=O)C[C@H]1OC(C)=O [3′5′-diacetyl-L-dC, 3′,5′-Di-O-acetyl-2′-deoxy-β-L-cytidine]
[1]
  % BA (bioavailability of L-dC): 23.0 ± 6.5%

## CC(C)[C@H](N)C(=O)O[C@@H]1C[C@@H](n2ccc(N)nc2=O)O[C@H]1CO [3′-val-L-dC, 3′-L-valine ester of 2′-deoxy-β-L-cytidine]
[2]
  Solubility (g/L): >408 g/L
[2]; listed as 3′-valinyl ester hydrochloride of β-L-dC
  Solubility (g/L): > 408 g/L
[2]; water, saturation not obtained, 3 samples, listed as 3′-valinyl ester hydrochloride of β-L-dC
  Concentration of solution of the maximum quantity available, single samples: 1.013 mol/L and 0.996 mol/L and 1.059 mol/L
[3]; oral
  % BA (bioavailability of L-dC): 85.1 ± 24.5%

## CC(C)[C@H](N)C(=O)OC[C@@H]1O[C@H](n2ccc(N)nc2=O)C[C@H]1O [5′-val-L-dC, 5′-L-valine ester of 2′-deoxy-β-L-cytidine hydrochloride]
[4]; dival-L-dC 1000 mg/kg/day oral, F
  Tlast (median): 4 h
[4]; dival-L-dC 1000 mg/kg/day oral, M
  Tlast (median): 5 h
[4]; dival-L-dC 2000 mg/kg/day oral, F
  Tlast (median): 8 h
[5]; dival-L-dC 1000 mg/kg/day oral, Day 1, F
  Tlast: 4 h
[5]; dival-L-dC 1000 mg/kg/day oral, Day 1, M
  Tlast: 4 h
[5]; dival-L-dC 1000 mg/kg/day oral, Day 28, F
  Tlast: 4 h
[5]; dival-L-dC 1000 mg/kg/day oral, Day 28, M
  Tlast: 8 h
[5]; dival-L-dC 2000 mg/kg/day oral, Day 1, F
  Tlast: 8 h
[5]; dival-L-dC 2000 mg/kg/day oral, Day 1, M
  Tlast: 8 h
[5]; dival-L-dC 2000 mg/kg/day oral, Day 28, F
  Tlast: 24 h
[5]; dival-L-dC 2000 mg/kg/day oral, Day 28, M
  Tlast: 8 h
[3]; oral
  % BA (bioavailability of L-dC): 39.0 ± 11.4%

## Nc1ccn([C@H]2C[C@H](O)[C@@H](CO)O2)c(=O)n1 [D-dC, D-Deoxycytidine, reference compound]
[6]
  Vmax of phosphorylation: 2.15 nmol/min/mg protein
[2]
  Solubility (g/L): 272 g/L (≈ 1200 mM)
  Solubility (mol/L): 1.03 mol/L (≈ 234 mg/mL)

## O=c1[nH]c(=O)n([C@@H]2O[C@H](CO)[C@@H](O)[C@@H]2F)cc1I [FIAU, fialuridine, reference compound]
[7]
  CC50 at 14 days: 4000 nM
HepG2 cells [8]
  mtDNA, % of Control: 86 % of Control

## Cc1cn([C@H]2O[C@@H](COP(=O)(O)OP(=O)(O)OP(=O)(O)O)[C@H](O)[C@H]2F)c(=O)[nH]c1=O [L-FMAU-TP]
[9]; [24]
  IC50: 150 ± 50 nM
Human DNA polymerase β [10]
  IC50: > 50000 nM
Human DNA polymerase γ [11]
  IC50: > 50000 nM

## Nc1ccn([C@@H]2C[C@@H](O)[C@H](COP(=O)(O)OP(=O)(O)OP(=O)(O)O)O2)c(=O)n1 [L-dC-TP]
[9]
  IC50: 1820 nM
Human DNA polymerase β [12]
  IC50: > 100000 nM
Human DNA polymerase γ [13]
  IC50: > 100000 nM
HepG2 cells [14]
  apparent intracellular half-life: 15.5 ± 0.34 h
In vitro
  half-life: 15.5 h

## O=c1ccn([C@@H]2C[C@@H](O)[C@H](CO)O2)c(=O)[nH]1 [L-dU, β-L-2′-deoxyuridine]
[15]
  share of drug excreted / recovered dose in urine, by analyte: approximately 2.5%

## O=c1ccn([C@@H]2C[C@@H](O)[C@H](COP(=O)(O)OP(=O)(O)OP(=O)(O)O)O2)c(=O)[nH]1 [L-dU-TP, β-L-2′-deoxyuridine 5′-triphosphate]
[9]
  IC50: 5260 nM
Human DNA polymerase β [12]
  IC50: > 100000 nM
Human DNA polymerase γ [13]
  IC50: > 100000 nM
HepG2 cells [14]; 24 h, 10 μM
  intracellular metabolite level: 18.2 ± 1.0 µM
[16]
  intracellular metabolite level: 43.5 ± 27 µM

## Nc1ncnc2c1ncn2[C@@H]1CC[C@H](COP(=O)(O)OP(=O)(O)OP(=O)(O)O)O1 [L-ddA-TP]
[9]; [24]
  IC50: 2000 ± 300 nM

## Nc1ccn([C@@H]2CS[C@H](COP(=O)(O)OP(=O)(O)OP(=O)(O)O)O2)c(=O)n1 [Lamivudine-TP]
[9]; [24]
  IC50: 500 ± 100 nM
Human DNA polymerase β [10]
  IC50: 1200 nM
Human DNA polymerase γ [11]
  IC50: 10 nM

## Cc1cn([C@H]2C[C@H](O)[C@@H](CO)O2)c(=O)[nH]c1=O [Thd, D-thymidine]
[6]
  Vmax of phosphorylation: 1.26 nmol/min/mg protein

## Cc1cn([C@H]2C[C@H](N=[N+]=[N-])[C@@H](CO)O2)c(=O)[nH]c1=O [ZDV, zidovudine, reference compound]
[17]
  IC50: 700 nM
[18]
  IC50: 1800 nM
[7]
  CC50 at 14 days: 14000 nM
HepG2 cells [8]
  mtDNA, % of Control: 119 % of Control

## Nc1ccn([C@H]2CC[C@@H](CO)O2)c(=O)n1 [ddC, zalcitabine, reference compound]
[7]
  CC50 at 14 days: 20000 nM

## CC(C)[C@H](N)C(=O)OC[C@@H]1O[C@H](n2ccc(N)nc2=O)C[C@H]1OC(=O)[C@@H](N)C(C)C [dival-L-dC, 3′,5′-L-divaline ester of 2′-deoxy-β-L-cytidine]
[19]
  P′ (B/A′): 1.80 × 10^−3 and 1.77 × 10^−3
[20]; after 72 hours
  administered oral dose recovered in urine: 31%
[20]; within 8 hours
  administered oral dose recovered in urine: Approximately 26%
[21]; 20 mg/kg oral, each animal
  loss in body weight following the initial dose on Day 1: approximately 0.6 kg
[21]; cumulative, all four monkeys
  BUN decrease at Day 17 compared to Day 1: ~43%
[21]; single oral dose by gavage (escalation 20-2000 mg/kg), monkey
  NOAEL: 2000 mg/kg
[22]
  plasma protein binding: 13.3%±2.6%
[5]; 28 day oral, rat
  NOAEL: < 500 mg/kg
[2]; listed as 3′,5′-divalinyl ester hydrochloride of β-L-dC
  Solubility (mol/L): more than 2.5 mol/L
[23]
  conversion detected in the organic phase during log P experiment: 14%
[3]
  share of the oral dose absorbed: approximately 73%
[3]; oral
  share of the absorbed ester converted to L-dC: more than 99%
[3]; oral, coadministered with 10 mg/kg L-dT
  % BA w/ L-dT: 74.6 ± 9.9%
[3]; oral, listed as 3′,5′-divaline ester of L-dC
  % BA (bioavailability of L-dC): higher oral bioavailability than the parent L-dC
[3]; oral, listed as L-dC di-valine
  % BA (bioavailability of L-dC): 72.7 ± 22.0%
